Data as given in PubChem BioAssay AID2060903 (Molecular Pharmacology Branch, DTP, NCI, 2025).

Tested on: 377384-186-R-J1-PDC complex spheroid viability
Assay: Anticancer human tumor 377384-186-R-J1-PDC patient-derived pancreatic carcinoma cell line growth inhibition [RAS]
Conditions: for IC50: curve of first compound; for viability, T/C: stronger effect = lower value; active = viability on the fitted dose curve at most 10% of control; inactive = the rest
Outline: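 Tumour cells grown as complex spheroids with HUVEC endothelial cells and mesenchymal stem cells, treated with RAS pathway inhibitor combinations. Each agent spans half-log steps from near clinical Cmax, or 10 microM where Cmax is unknown.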

[1] = second compound 0.000949 µM, first compound 0.0316 µM
[2] = second compound 0.000949 µM, first compound 0.1 µM
[3] = second compound 0.000949 µM, first compound 0.316 µM
[4] = second compound 0.000949 µM, first compound 1 µM
[5] = second compound 0.003 µM, first compound 0.0316 µM
[6] = second compound 0.003 µM, first compound 0.1 µM
[7] = second compound 0.003 µM, first compound 0.316 µM
[8] = second compound 0.003 µM, first compound 1 µM
[9] = second compound 0.00949 µM, first compound 0.0316 µM
[10] = second compound 0.00949 µM, first compound 0.1 µM
[11] = second compound 0.00949 µM, first compound 0.316 µM
[12] = second compound 0.00949 µM, first compound 1 µM
[13] = second compound 0.03 µM, first compound 0.0316 µM
[14] = second compound 0.03 µM, first compound 0.1 µM
[15] = second compound 0.03 µM, first compound 0.316 µM
[16] = second compound 0.03 µM, first compound 1 µM
[17] = second compound 0.0949 µM, first compound 0.0316 µM
[18] = second compound 0.0949 µM, first compound 0.1 µM
[19] = second compound 0.0949 µM, first compound 0.316 µM
[20] = second compound 0.0949 µM, first compound 1 µM
[21] = second compound 0.3 µM, first compound 0.0316 µM
[22] = second compound 0.3 µM, first compound 0.1 µM
[23] = second compound 0.3 µM, first compound 0.316 µM
[24] = second compound 0.3 µM, first compound 1 µM
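Note: spheroids exposed to compounds for seven days before readout.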

CC(=O)OC12COC1CC(O)C1(C)C(=O)C(O)C3=C(C)C(OC(=O)C(O)C(NC(=O)OC(C)(C)C)c4ccccc4)CC(O)(C(OC(=O)c4ccccc4)C21)C3(C)C (centres undefined) + CCn1c(-c2cccnc2C(C)OC)c2c3cc(ccc31)N1CCOC(CC(NC(=O)C(C(C)C)N(C)C(=O)C3(F)CCN(C(=O)C#CC(C)(C)N(C)C)CC3)C(=O)N3CCCC(N3)C(=O)OCC(C)(C)C2)C1
inactive: viability, T/C [1] 10.2% | viability, T/C [2] 10.2% | viability, T/C [3] 11% | viability, T/C [4] 14.1% | viability, T/C (second compound 0.000949 µM, first compound 3.16 µM) 14.5% | viability, T/C (second compound 0.000949 µM, first compound 10 µM) 15.6% | viability, T/C [5] 11.1% | viability, T/C [6] 15.1% | viability, T/C [7] 11% | viability, T/C [8] 12.9% | viability, T/C (second compound 0.003 µM, first compound 3.16 µM) 14.7% | viability, T/C (second compound 0.003 µM, first compound 10 µM) 15.9% | viability, T/C [9] 10.5% | viability, T/C [10] 11.6% | viability, T/C [11] 12.5% | viability, T/C [12] 12% | viability, T/C (second compound 0.00949 µM, first compound 3.16 µM) 13.7% | viability, T/C (second compound 0.00949 µM, first compound 10 µM) 14.4% | viability, T/C [13] 9.38% | viability, T/C [14] 11.6% | viability, T/C [15] 12.8% | viability, T/C [16] 12.5% | viability, T/C (second compound 0.03 µM, first compound 3.16 µM) 13.4% | viability, T/C (second compound 0.03 µM, first compound 10 µM) 15.4% | viability, T/C [17] 9.14% | viability, T/C [18] 10.3% | viability, T/C [19] 12.3% | viability, T/C [20] 12.8% | viability, T/C (second compound 0.0949 µM, first compound 3.16 µM) 13.1% | viability, T/C (second compound 0.0949 µM, first compound 10 µM) 12.8% | viability, T/C [21] 6.36% | viability, T/C [22] 8.8% | viability, T/C [23] 9.95% | viability, T/C [24] 11.7% | viability, T/C (second compound 0.3 µM, first compound 3.16 µM) 12.3% | viability, T/C (second compound 0.3 µM, first compound 10 µM) 12%
< 31.6 nM: IC50 (second compound 0.000949 µM) | IC50 (second compound 0.003 µM) | IC50 (second compound 0.00949 µM) | IC50 (second compound 0.03 µM) | IC50 (second compound 0.0949 µM) | IC50 (second compound 0.3 µM)

Nc1ccn(C2OC(CO)C(O)C2(F)F)c(=O)n1 (centres undefined) + CCn1c(-c2cccnc2C(C)OC)c2c3cc(ccc31)N1CCOC(CC(NC(=O)C(C(C)C)N(C)C(=O)C3(F)CCN(C(=O)C#CC(C)(C)N(C)C)CC3)C(=O)N3CCCC(N3)C(=O)OCC(C)(C)C2)C1
active: viability, T/C [2] 7.57% | viability, T/C [3] 5.68% | viability, T/C [4] 3.18% | viability, T/C [7] 4.5% | viability, T/C [8] 3.68% | viability, T/C [10] 8.08% | viability, T/C [11] 5.38% | viability, T/C [12] 4.57% | viability, T/C [14] 5.8% | viability, T/C [15] 5.88% | viability, T/C [16] 3.65% | viability, T/C [18] 7.12% | viability, T/C [19] 4.37% | viability, T/C [20] 4.2% | viability, T/C [22] 5.77% | viability, T/C [23] 4.01% | viability, T/C [24] 3.34%
9.69 nM: IC50 (second compound 0.003 µM)
9.29 nM: IC50 (second compound 0.0949 µM)
12.6 nM: IC50 (second compound 0.00949 µM)
11.8 nM: IC50 (second compound 0.03 µM)
11.3 nM: IC50 (second compound 0.000949 µM)
inactive: viability, T/C (second compound 0.000949 µM, first compound 0.00316 µM) 87.1% | viability, T/C (second compound 0.000949 µM, first compound 0.01 µM) 53.8% | viability, T/C [1] 19.4% | viability, T/C (second compound 0.003 µM, first compound 0.00316 µM) 94.7% | viability, T/C (second compound 0.003 µM, first compound 0.01 µM) 48.4% | viability, T/C [5] 23.4% | viability, T/C [6] 9.1% | viability, T/C (second compound 0.00949 µM, first compound 0.00316 µM) 96.1% | viability, T/C (second compound 0.00949 µM, first compound 0.01 µM) 57.7% | viability, T/C [9] 19.2% | viability, T/C (second compound 0.03 µM, first compound 0.00316 µM) 90.9% | viability, T/C (second compound 0.03 µM, first compound 0.01 µM) 55.3% | viability, T/C [13] 17.6% | viability, T/C (second compound 0.0949 µM, first compound 0.00316 µM) 79.1% | viability, T/C (second compound 0.0949 µM, first compound 0.01 µM) 47.8% | viability, T/C [17] 20.1% | viability, T/C (second compound 0.3 µM, first compound 0.00316 µM) 71.9% | viability, T/C (second compound 0.3 µM, first compound 0.01 µM) 40.6% | viability, T/C [21] 13%
7.06 nM: IC50 (second compound 0.3 µM)
